Assay results reported in publication PMC12040169 (PLOS Biology, 2025).

Experiment: in vitro
Settings: human, hela cells, % viability

Row | Structure (SMILES) | viability at 28.5 h, 10 µM [%] | viability at 28.5 h, 10 µM (bulk resorufin, single well) [%]
1 | CCOC(=O)C1CCN(C(=O)c2c(-c3ccccc3)noc2C)CC1 [CBK158704] | 86.3 | 
2 | CCCOc1ccc(-c2cn(CC(=O)NN)cn2)cc1 [CBK261790] | 106 | 
3 | COCCCN(Cc1ccccn1)Cc1cccc(F)c1F [CBK282947] | 84.5 | 
4 | CCOC(=O)c1[nH]c2ccccc2c1NS(=O)(=O)c1ccc(NC(C)=O)cc1 [CBK047411] | 81.4 | 
5 | O=C(c1ccco1)c1coc2ccc(O)cc12 [CBK115570] | 113 | 
6 | CCn1c(CN2CC(C)CC(C)C2)nc2c1c(=O)n(C)c(=O)n2C (centres unmarked) [CBK306030] | 84.4 | 
7 | COCC(=O)N1CCc2sccc2C1c1ccc(NC(=O)c2ccco2)cc1 (centres unmarked) [CBK286200] | 95.6 | 
8 | Cc1cc(Cl)ccc1NC(=O)CCC(=O)N/N=C/c1cccnc1 [CBK261945] | 100 | 
9 | O=C(NC(Cc1ccccc1)C(O)c1nccs1)C1CC=CCC1 (centres unmarked) [CBK284763] | 95.3 | 
10 | Cc1ccc2nc(Cn3cc(-c4cnn(Cc5ccccc5)c4)cn3)cn2c1 [CBK297125] | 90.4 | 
11 | CCC(C)(C)c1ccc(S(=O)(=O)N2CCCN(Cc3c(-c4ccccc4)noc3C)CC2)cc1 [CBK062888] | 92.8 | 
12 | O=C(O)CCNS(=O)(=O)c1ccc(Cl)c(Cl)c1 [CBK268815] | 112 | 
13 | CS(=O)(=O)c1ccc(-c2ccc3c(c2)C(=O)NC(C2CCN(C(=O)OCc4ccccc4)CC2)O3)cc1 (centres unmarked) [CBK156087] | 98.1 | 
14 | c1csc(CNc2nc3ccccc3n2CCN2CCOCC2)c1 [CBK262462] | 109 | 
15 | COCCN1CCN(C(=O)NCCc2c(C)[nH]c3ccc(Cl)cc23)CC1 [CBK307637] | 85 | 
16 | COCc1cccc(-c2nccnc2OC(c2ccccc2)c2ccccc2)c1 [CBK106960] | 101 | 
17 | COC(=O)[C@@H](C)NC(=O)[C@@H]1CN(C(=O)c2cccc(F)c2)CCN1C(=O)C1CCCCC1 [CBK289621] | 87.4 | 
18 | CCOC(=O)N1CCC(NC(=O)N(CCC#N)C2CCCCC2)CC1 [CBK156384] | 90.9 | 
19 | CC(C(=O)Nc1ccc(S(N)(=O)=O)cc1)N1CCCc2ccccc21 (centres unmarked) [CBK306108] | 116 | 
20 | CCOC(=O)c1cnn(-c2cc(Oc3ccccc3)ncn2)c1N [CBK098284] | 105 | 
21 | O=C(CCC1C(=O)NC(=O)NC1=O)Nc1cccc(-c2nc3ccccc3s2)c1 [CBK285844] |  | 105
22 | O=C(Nc1cccnc1)N1CCN(CCc2ccccc2)CC1 [CBK158937] | 95.4 | 

Row | Structure (SMILES) | viability at 28.5 h, 10 µM [%] | viability at 28.5 h, 10 µM (bulk resorufin, single well) [%]
23 | CC1CCc2c(sc(NC(=O)c3ccn(C)n3)c2C#N)C1 (centres unmarked) [CBK304682] | 89.8 | 
24 | O=C(O)C1CCN(C(=O)CSc2nnc(-c3ccccc3F)n2C2CCCC2)CC1 [CBK296971] | 115 | 
25 | O=C(CSCC(=O)c1ccc(F)cc1)Nc1ccc2ccccc2c1 [CBK263264] | 88.1 | 
26 | O=C(NCC1(O)CCSCC1)c1ccc2ccccc2n1 [CBK305211] | 85 | 
27 | CC1CC(C)CN(C(=O)CN2C3CCC2CC(O)(c2ccco2)C3)C1 (centres unmarked) [CBK284032] | 92.5 | 
28 | COc1ccc(C(NC(=O)N(C(C)C)C(C)C)c2nccn2C)cc1 (centres unmarked) [CBK283568] | 111 | 
29 | CCOC(=O)C(N)CSC1CC(=O)N(c2ccc(Br)cc2)C1=O (centres unmarked) [CBK017250C] | 102 | 
30 | CC(C)(c1ccccc1)c1ccc(OCCCCn2cncn2)cc1 [CBK266405] | 89.5 | 
31 | NCCNC(=O)c1ccc(-c2cccc(C(F)(F)F)c2)o1 [CBK115927C] | 104 | 
32 | C(=C\c1cccc(Nc2ccc(Oc3ccccc3)cc2)n1)/c1ccccc1 [CBK037614] | 94.1 | 
33 | CC1CCC(NC(=O)CN2C3CCC2CC(O)(c2ccco2)C3)CC1 (centres unmarked) [CBK284036] | 91 | 
34 | O=C(c1ccc(C#CC2(O)CCCCC2)cc1)N1CCC(C(O)(c2ccccc2)c2ccccc2)CC1 [CBK033758] | 84.7 | 
35 | Cc1ccccc1C(NC(=O)C1CCN(C(=O)NCCc2ccccc2)CC1)c1ncccc1C (centres unmarked) [CBK060409] | 91 | 
36 | CC1CC(C)CN(C(=O)Cn2ncc3cccn3c2=O)C1 (centres unmarked) [CBK283805] | 81.2 | 
37 | CC12CN3CC(C)(CN(C1)C3c1cc(Br)ccc1O)C2O (centres unmarked) [CBK262664] | 112 | 
38 | NC(=O)CN1CCCN(c2ccnc(OCCN3CCOCC3)n2)CC1 [CBK083804] | 89.9 | 
39 | O=C(Nc1ccc(O)cc1C(=O)O)c1ccc2c(c1)C(=O)N(Cc1ccccc1)C2=O [CBK266540] | 88.7 | 
40 | COc1ccc(CC(=O)N2CCC(C#N)(c3ccccc3)CC2)c(OC)c1 [CBK091388] |  | 91.4
41 | Cc1nn(-c2ccccc2)c(CN2C(=O)NC3(CCCC3)C2=O)c1C#N [CBK305572] | 81.4 | 
42 | CCOc1ccccc1-c1ccccc1NC(=O)c1nc2ccccc2n(C)c1=O [CBK285855] | 90.1 | 
43 | COc1ccc2c(c1)C1(CC(=O)N(CCc3scnc3C)C1=O)C(=O)N2C (centres unmarked) [CBK075213] | 91.6 | 
44 | CN1CCC(N(C)C(=O)NCc2ccc(C#N)cc2)C1 (centres unmarked) [CBK156005] | 89.3 | 
